Assay results reported in patent publication US20230337658A1, “COMPOSITIONS AND METHODS FOR ENHANCING SPERM CELL QUALITY” (ABS Global, Inc., priority 2022, published 2023).
Where a name gives a salt, the structure may show the parent alone.

How the values were obtained:
[1] = tested on: slaughterhouse oocytes fertilized with sexed semen; assay: In vitro fertilization (IVF) with sexed semen: embryo cleavage and blastocyst formation; type: cell-based, bovine
From the text: IVF Testable Unit Generation Design: This study utilizes sires from two breeds, Holstein and Jersey. The study design includes one ejaculate collection from 10 unique sires to generate sexed semen units in a split batch design with clofilium and a paired control.
Final breed tally of the collections were 7 Holsteins and 3 Jersey sires. Ejaculates selected for use in this trial were processed following standard production procedures outlined in detail below. Insemination doses, freeze canes, and all associated documentation were blind labeled during the incoming quality check. This was to prevent technician bias on quality control assessments after freeze-thaw as well as during the IVF outcome quantitation assessments.
After processing, the sexed semen was packaged and frozen during a regularly scheduled production freeze following standard operating procedures (SOPs). Within one week of unit generation, the outgoing quality control measurements were performed by a trained research technician. Post-thaw motile concentration and the presence/absence of bacterial contamination were completed. Insemination doses had to pass standard production outgoing quality control parameters to be utilized for the IVF trial.
Each facility received the two treatment groups for each individual ejaculate. The two treatments from each split ejaculate were used concurrently to fertilize oocytes from the same pooled batch of slaughterhouse oocytes.
Trained IVF technicians performed the outlined fertilizations. Day 2 cleavage rate, Day 7 and 8 blastocyst rates will be recorded, as well as polyspermy post-fertilization.
Oocyte prep: Four well fertilization plates are prepared by filling all 4 wells with 400 μL of BO-IVF (MOFA Verona, Wis.) and equilibrated in a 37° C. 5% CO2 for at least 1 hour. […]
Semen prep: Three insemination straws per treatment group are thawed at 37° C. for 45 seconds. […] A 5 μL sample aliquot is added to 95 μLs 4% NaCl to immobilize the cells, and cell concentration is quantified using a hemocytometer. Cells with visible membrane damage are not counted towards cell density calculations. […]

sperm cells [2] = assay: Sexing cytometer metrics: eligible cells, skew; type: cell-based, bovine; conditions: 5 μM, n=10 sires
Protocol: (§1) Sample Preparation for Sperm Sexing: A stained sample was prepared at room temperature that contained 200 M/mL sperm cells in 0.06 mg/mL Hoechst 33342 diluted to final volume in Stain TALP with Magnetic Beads with (+clofilium) or without (control) such that clofilium would be at a final concentration of 5 μM in the final stained sample volume. The sample was then incubated in a 37° C. water bath for 45 minutes. After 45 minutes Red Stain TALP was added to the stained sample in a 2:1 v/v ratio. The sample+Red TALP was then thoroughly mixed using inversion, filtered using tube top 20 μm Partec filters (Partec#04-0042-2315), and aliquoted into round bottom 5 mL tubes.
Sexing Cytometer Metrics: The stained, filtered sample was then run on proprietary sexing cytometers. The sample throughput was adjusted to 23,000 cells/sec and the detection and kill lasers were focused. To confirm proper laser focus, kill count assessments were performed before collecting sex skewed sample. A successful kill count has a population that is ≥75% dead and ≥95% sliced with at least 200 cells being counted. […] After a successful kill count, a gate was placed to collect the X chromosome cells, which is the cell population with the brighter Hoechst 33342 fluorescence as measured with a 355 nm wavelength excitation laser. […]

sperm cells [3] = assay: Pre-freeze and post-freeze motile cell quantification (CASA); type: cell-based, bovine; conditions: 5 μM, n=10 sires, compared to SOP
Protocol: Sex Skewed Sample Collection and Processing: The sample was run to collect between 300 and 400 mL of sex skewed sample, the composition of which is approximately 17% TRIS A (Part 1) buffer, 80% sheath fluid, and 2% cell sample. The sample was collected in 50 mL conical tubes containing 5 mLs of TRIS A (Part 1), and each tube was filled to a max volume of 30 mL before being replaced. After the requisite total volume was collected, sexed sperm was centrifuged at room temperature at 2400×g for 10 minutes. The supernatant was aspirated and discarded to reach a 1 mL pellet volume. 144 μL of TRIS A (Part 1)/GTLS mixture containing 40 μM clofilium or no clofilium (control) was added to each pellet after resuspension. The tubes were then placed in beakers filled with 150 mL of room temperature water, to prevent cold shock, and were then transferred to a 4° C. cold room. […] The concentration of progressively motile cells was determined using the Hamilton Thorne IVOS II with […] […] After which 20 μLs of sample is added to 20 μLs of QC diluent, gently vortexed for 5 seconds, and read on the CASA fluorescent settings described above. The remainder of the straw volume is spread on a blood agar plate and left at 37° C. for 24 hours before bacterial colonies are counted. […]

sexed semen samples = assay: Cellular function of sexed semen samples (mitochondrial membrane potential, motility); type: cell-based; conditions: sexed semen samples treated
sperm cells [4] = assay: Staining sperm cells with Hoechst dye before sexing; type: cell-based; conditions: present during staining with Hoechst dye
Protocol: as §1
Sexing Cytometer Metrics: The stained, filtered sample was then run on proprietary sexing cytometers. The sample throughput was adjusted to 23,000 cells/sec and the detection and kill lasers were focused. To confirm proper laser focus, kill count assessments were performed before collecting sex skewed sample. A successful kill count has a population that is ≥75% dead and ≥95% sliced with at least 200 cells being counted. If an instrument could not achieve the above metrics, the instrument was not used to collect sex skewed semen. After a successful kill count, a gate was placed to collect the X chromosome cells, which is the cell population with the brighter Hoechst 33342 fluorescence as measured with a 355 nm wavelength excitation laser. Cytometer performance metrics were collected 15 minutes after instrument set up, and 15 minutes after the placement of the last sample collection tube, including the height of the Y-peak, the height of the X-peak, the height of the trough from the histogram of events per emitted fluorescent intensity, gated %, and dead %.

CCCCCCC[N+](CC)(CC)CCCCc1ccc(Cl)cc1 [clofilium tosylate, N-[4-(4-chlorophenyl)butyl]-N,N-diethylheptan-1-aminium]
percentage of normalized cleaved embryos at day 2 ([1]; 5 μM throughout the sexing process, N=2 sires, normalized to the control process, FIG. 3A): improvement | percentage of day 7 blastocysts ([1]; 5 μM throughout the sexing process, N=2 sires, normalized to the control process, FIG. 3B): improvement | fertility of semen, as assessed by embryo cleavage and blastocyst formation post-IVF ([1]; included in the sexing process): improves fertility | Skew (percentage of X-chromosome bearing sperm cells) (sperm cells [2]): remains unaffected | percentage of eligible cells (live, sexed X chromosome bearing cells) (sperm cells [2]; compared to SOP at start and end of the collection process, FIG. 4): increased eligible percent | number of straws obtained from a single sample catch tube (pre-freeze motile cell quantification) (sperm cells [3]; post instrument processing, FIG. 5): improvement | motile cells (in millions) per insemination dose (sperm cells [3]; post-freeze, FIGS. 6A, 6B): more motile cells | cellular function, as measured by mitochondrial membrane potential (sexed semen samples): increased cellular function | cellular function, as measured by motility (sexed semen samples): increased cellular function | eligibility (number of cells eligible for sexing) (sperm cells [4]): increase eligibility | resolution (separation of X- and Y-chromosome cell peaks in a histogram) (sperm cells [4]): increase resolution | sex skew (sperm cells [4]): increase | time required to achieve staining saturation (sperm cells [4]): reduce the time
